Data taken from patent publication US8680095B2, “Heterocycle compounds and uses thereof for the prevention or treatment of diseases involving formation of amyloid plaques and/or where a dysfunction of the APP metabolism occurs” (Institut National de la Sante et de la Recherche Medicale …, priority 2009, dated 2014).
Read-outs that look alike come from different tables or passages of the source.

Columns and labels:
[1] = test system: APP-CTFs (CTFα, AICD) in SKNSH-SY5Y APPwt cells; experiment: Western blotting of APP carboxy-terminal fragments (CTFα, AICD) in treated cells; assay type: cell-based; details: Homo sapiens, 24 h
Method: (§1) The human neuroblastoma cell line SKNSH-SY5Y APP^wt is cultured in Dulbecco's modified Eagle medium (Invitrogen) supplemented with 10% fetal calf serum (PAA), 2 mM L-glutamine (Invitrogen), 1 mM non-essential amino acids (Invitrogen), 50 units/ml penicillin/streptomycin (Invitrogen) and 200 μg geneticin (G418; Invitrogen) (selection for cell expressing APP) in a 5% CO2 humidified incubator at 37° C. Cells are seeded into 96-wells plates (20000 cells/well) for cytotoxicity assay and 12-wells plate (300000 cells/well) for western blotting for 18 h.
(§2) For western blotting, cells are incubated with 700 μl/well of each product at 10; 3; 1 and 0.31 μM in a 5% CO2 incubator at 37° C. for 24 h. The following day, culture medium samples are collected for ELISA assay and stored at −80° C. Cells are rinsed very slowly with cold PBS, snap-frozen on dry ice and immediately stored at −80° C.
Cells in twelve-well plates are collected in 50 μl Laemmli Lysis Buffer (pH 6.8, 50 mM Tris Base, 2% SDS, 20% Glycerol, 1 mM sodium pyrophosphate, 1 mM sodium orthovanadate and Protease Inhibitor Cocktail Complete Mini-Roche) per well. Cells are scrapped and lysates sonicated for 5 min.
Protein content is determined using the BCA Method (Pierce). Samples containing equal amounts of protein (35 μg total protein for mice and 20 μg total protein for cells per well) are heated at 85° C. for 2 min after thawing and electrophoresed for 2.45 h at 125 V in a 16% Tricine precast gels according to the protocol supplied with the NuPAGE system (Invitrogen). After size fractionation, the proteins are transferred onto nitrocellulose 0.2 μm pore-size membranes (Invitrogen) in the blot module of the NuPAGE sytem for 1 h at room temperature (RT). Blots are blocked for 1 h in TNT with 0.05% Tween 20 and 5% nonfat milk at RT, incubated overnight at 4° C. with anti-C term APP C1:3-2429 (1:250000) primary antibody and washed four times with TNT before being exposed to peroxidase labeled anti-mouse IgG (H+L) C4 94010 (1:50000; Vector) secondary antibody for […] at 25° C. The immunoreactions are detected with SuperSignal West Pico Chemiluminescent Substrate (Thermo specific, 34077). Images are scanned with LAS-3000 Image System (Global FUJIFILM) and bands quantified by ImageJ 1.37v computer program. The different APP-CTF bands are detected as a function of their molecular mass, as described in Vingtdeux, V., Hamdane, M., Gompel, M. et al. (2005) Phosphorylation of amyloid precursor carboxy-terminal fragments enhances their processing by a gamma-secretase-dependent mechanism. Neurobiol Dis, 20, 625-637. Graphs and statistical analysis of results is performed with Graph Pad Prism (version 4.02) computer program.

β-amyloid 1-42 = experiment: Innotest β-amyloid 1-42 ELISA on SY5Y culture medium; assay type: cell-based; details: Homo sapiens, 24 h, compared to a control with a value of 100, read-out: Aβ 1 μM*
Method: as §1, §2
The β-amyloid 1-42 rate is quantified in SY5Y cells-culture medium by using the Innotest β-amyloid 1-42 (80324 Innogenetics®) according to the manufacturer instructions. Briefly, Fresh culture medium is used to dilute the standard. Culture samples are centrifuged at 200 g at 4° C. during 5 minutes in order to eliminate cell fragments.
First, 75 μl of the conjugate working solution1 (3D6 biotinylated antibody) is added to a 21F12 Ab precoated well. Twenty five μl of pure supernatant samples are then added to the coated well, and incubated for 1 h. Then the plate is washed 5 times with the washing buffer. Then 100 μl of peroxidase-labeled streptavidin (conjugate working solution 2) is added and incubated for 30 min at RT. After washing the plate 5 times, 100 μl of tetramethyl benzidine (substrate working solution) is added onto the plate and incubated for 30 minutes in the dark. The reaction is stopped with 50 μl 0.9N sulfuric acid (stop solution). The absorbance is read at 450 nm.
A sigmoidal curve fitting (four parameter […] curve) is used to calculate the standard curve. The corresponding concentration of β-amyloid (1-42) in pg/ml is determined from the standard curve. Results are expressed in concentration of β-amyloid in pg per μg of total proteins. Graphs and statistic analyses (t Test) are performed with Graph Pad Prism computer program (V0.5).

APP-CTFα = experiment: In vivo mice treatment, western blotting of APP-CTFs in prefrontal cortex; details: C57Bl6 female mice, 12.5, 25, 50 mg/kg intraperitoneally once, prefrontal cortex 24 h after, versus vehicle
Method: Test molecules are intraperitoneally injected to 4 month old C57BI6 females mice either at 12.5; 25; 50 mg/kg or vehicule once, and sacrificed 24 h after by decapitation. Brain is immediately removed and Prefrontal Cortex is dissected by using a cold zinc brain matrix. The total dissection time was <3 min from decapitation. Following dissection tissue is frozen in dry ice and then stored at −80° C. for western blotting.
Protein extracts of Prefrontal Cortex samples are prepared in 50 μl Laemmli Lysis Buffer (pH 6.8, 50 mM Tris Base, 2% SDS, 20% Glycerol, 1 mM sodium pyrophosphate, 1 mM sodium orthovanadate and Protease Inhibitor Cocktail Complete Mini-Roche) by trituration of the fragments in a 0.2 ml glass micro tissue grinder. […]
Protein content is determined using the BCA Method (Pierce). […] The immunoreactions are detected with SuperSignal West Pico Chemiluminescent Substrate (Thermo specific, 34077). Images are scanned with LAS-3000 Image System (Global FUJIFILM) and bands quantified by ImageJ 1.37v computer program. The different APP-CTF bands are detected as a function of their molecular mass, as described in Vingtdeux, V., Hamdane, M., Gompel, M. et al. (2005) Phosphorylation of amyloid precursor carboxy-terminal fragments enhances their processing by a gamma-secretase-dependent mechanism. […]

[2] = Cytotoxicity CC50 on MRC-5; assay type: cell-based; details: human, MRC-5 cells
[3] = compared to a control with a value of 100, read-out: CTFα 1 μM*
[4] = AICD, compared to a control with a value of 100, read-out: AlCD 1 μM*

Row | melting point [°C] | Compound | activity at 1 µM [1, 3] [%] | activity at 1 µM [1, 4] [%] | activity at 1 µM (β-amyloid 1-42) [%] | production of APP-CTFα (optical density, FIG. 1) (APP-CTFα) | CC50 [2] [µM]
1 |  | CN1CCN(c2ccc(Nc3ccnc4cc(Cl)ccc34)cc2CNC(C)(C)C)CC1 [compound 56, N-{3-[(tert-butylamino)methyl]-4-(4-methylpiperazin-1-yl)phenyl}-7-chloroquinolin-4-amine] | 183 | 823 | 45 |  | 
2 |  | CN1CCN(c2ccc(Nc3ccnc4cc(Cl)ccc34)cc2CN2CCOCC2)CC1 [compound 57, 7-chloro-N-[4-(4-methylpiperazin-1-yl)-3-(morpholin-4-ylmethyl)phenyl]quinolin-4-amine] | 194 | 757 | 19 |  | 
3 |  | Cc1cc(Nc2ccnc3cc(Cl)ccc23)cc(CN2CCCC2)c1N1CCN(C)CC1 [compound 59, 7-Chloro-N-[3-methyl-4-(4-methylpiperazin-1-yl)-5-(pyrrolidin-1-ylmethyl)phenyl]quinolin-4-amine] | 629 | 325 | 73 |  | 
4 |  | CN(C)CCCN1CCN(C(=O)c2cc(Nc3ccnc4cc(Cl)ccc34)cc(C(=O)N3CCN(CCCN(C)C)CC3)c2)CC1 [compound 64, N-[3,5-Bis({4-[3-(dimethylamino)propyl]piperazin-1-yl}carbonyl)phenyl]-7-chloroquinolin-4-amine] | 106 | 669 | 31 |  | 
5 |  | Oc1c(CN2CCCC2)cc(Nc2ccnc3cc(Cl)ccc23)cc1CN1CCCC1 [compound 66, 4-[(7-Chloroquinolin-4-yl)amino]-2,6-bis (pyrrolidin-1-ylmethyl)phenol] | 754 | 886 | 19 | increases the production of APP-CTFα | 
6 |  | COC(=O)c1cc(Nc2ccnc3cc(Cl)ccc23)cc(C(=O)N2CCN(CCCN(C)C)CC2)c1 [compound 69, Methyl 3-[(7-chloroquinolin-4-yl)amino]-5-({4-[3-(dimethylamino)propyl]piperazin-1-yl}carbonyl)benzoate] | 126 | 302 | 46 |  | 
7 |  | CN1CCN(c2cc(Nc3ccnc4cc(Cl)ccc34)cc(N3CCN(C)CC3)c2)CC1 [compound 70, N-[3,5-bis(4-methylpiperazin-1-yl)phenyl]-7-chloroquinolin-4-amine] | 687 | 515 |  |  | 
8 |  | CN1CCN(c2cc(O)cc(Nc3ccnc4cc(Cl)ccc34)c2)CC1 [compound 72, 3-[(7-chloroquinolin-4-yl)amino]-5-(4-methyl-piperazin-1-yl)phenol] | 105 | 80 | 100 |  | 
9 |  | N#Cc1cc(N)cc(Nc2cc[n+](CCN3CCCCC3)c3cc(Cl)ccc23)c1 [compound 74, 4-[(3-amino-5-cyanophenyl)amino]-7-chloro-1-[2-(piperidin-1-yl)ethyl]quinolin-1-ium chloride] |  |  | 44 |  | 
10 |  | N#Cc1cc(/N=c2\ccn(CCN3CCCCC3)c3cc(Cl)ccc23)cc(NCCN2CCCCC2)c1 [compound 76, 3-({7-Chloro-1-[2-(piperidin-1-yl)ethyl]-1,4-dihydroquinolin-4-ylidene}amino)-5-{[2-(piperidin-1-yl)ethyl]amino}benzonitrile] |  |  | 76 |  | 
11 |  | N#Cc1cc(NCCN2CCCCC2)cc(Nc2ccnc3cc(Cl)ccc23)c1 [compound 77, 3-[(7-chloroquinolin-4-yl)amino]-5-{[2-(piperidin-1-yl)ethyl]amino}benzonitrile] |  | 618 | 85 |  | 
12 |  | CCN(CC)Cc1cc(Nc2ccnc3cc(Cl)ccc23)ccc1F [compound 84, 7-chloro-N-(3-((diethylamino)methyl)-4-fluorophenyl)quinolin-4-amine] | 358 | 209 |  |  | < 10
13 | 187 to 188 | Clc1ccc2c(Nc3ccc(N4CCOCC4)c(CN4CCCC4)c3)ccnc2c1 [compound 86, 7-chloro-N-[4-(morpholin-4-yl)-3-(pyrrolidin-1-ylmethyl)phenyl]quinolin-4-amine] |  |  |  |  | 
